Data as given in patent publication US11026972B2, “Methods for generating macrophages with enhanced cancer phagocytosis” (Georgia State University Research Foundation, Inc., priority 2016, dated 2021).

B1: IL-10: phagocytic suppressive cytokine (protein, UniProt P22301 19-178, looked up)
Interleukin-10: SPGQGTQSENSCTHFPGNLPNMLRDLRDAFSRVKTFFQMKDQLDNLLLKESLLEDFKGYLGCQALSEMIQFYLEEVMPQAENQDPDIKAHVNSLGENLKTLRLRLRRCHRFLPCENKSKAVEQVKNAFNKLQEKGIYKAMSEFDIFINYIEAYMTMKIRN

Assays:
[1] = test system: SIRPα^−/− and CD47^−/− mice; assay: Acute anemia and splenomegaly in mice deficient of CD47-SIRPα-mediated inhibition under inflammatory conditions; type: in vivo, mouse; conditions: colitic SIRPα^−/− mice; 1% DSS, 10 days
Text: FIGS. 1A-1K illustrate our assessment of acute anemia in mice deficient of CD47-SIRPα-mediated inhibition under inflammatory conditions. FIG. 1A includes a schematic drawing of a wild type (WT) and targeted allele of SIRPα (“SIRPα”) and data related to the generation of SIRPα “knock out” (KO) mice. […] Western blot (WB) analysis confirmed the depletion of SIRPα (˜120 kDa) protein in bone marrow leukocytes from SIRPα^−/− mice. FIG. 1B includes a photograph of intestinal tissue and a line graph charting the change in body weight of mice in which colitis had been induced by treatment with 1% or 2% DSS. […] FIGS. 1C and 1D include data related to acute anemia and splenomegaly developed in SIRPα^−/− mice with colitis. WT mice and SIRPα^−/− mice treated with DSS (2% DSS for WT and 1% DSS for SIRPα^−/−) for 10 days were analyzed for the presence of […] (FIG. 1C) and the content of hemoglobin in peripheral blood (FIG. 1D). FIG. 1E includes a panel of photomicrographs in which hematoxylin and eosin (H&E) was used to stain sections of spleens from WT and SIRPα^−/− mice treated with 2% and 1% DSS for 10 days. The bar graph of FIG. 1E illustrates the hemoglobin content in the spleens of WT and SIRPα^−/− mice treated with water or DSS. FIG. 1F is a pair of line graphs showing the time course over which anemia developed in SIRPα^−/− mice when colitis was induced with DSS and the levels of IL-17 in the serum over that same period of time. FIG. 1G is a diagram showing that IL-17 neutralization ameliorates anemia and splenomegaly in SIRPα^−/− mice with colitis. An anti-IL-17 antibody (10 μg, i.v.) was given on days 6 and 8 (arrows) during DSS-induction of colitis. FIG. 1H is a diagram showing that IL-17-containing colitic serum induces acute anemia in SIRPα^−/− mice. Serum samples collected from healthy (Ctl.) and colitic WT mice (2% DSS, 10 d) were administered to healthy SIRPα^−/− mice (i.v., 3×, arrows) with or without an anti-IL-17 antibody. FIGS. 1I and 1J are illustrative graphs showing that IL-17 directly induces acute anemia and splenomegaly in SIRPα^−/− mice and Cd47^−/− mice. Healthy mice were given recombinant IL-17 (10 μg/kg, i.v.) on days 1 and 3 (arrows, FIG. 1J); anemia and splenomegaly were analyzed on day 5 (FIG. 1I) or in a time course manner (FIG. 1J). FIG. 1K includes diagrams showing that acute anemia and splenomegaly in SIRPα^−/− and Cd47^−/− mice under zymosan-peritonitis (3×, every other day), IL-6 administration ([…], i.v.), LPS (0.25 mg/kg, i.p.), and CFA (1×, s.c.) administrations. Error bars are ±SEM **P<0.01, ***P<0.001 vs. control or the beginning time point. Data presented in each panel represent at least three independent experiments with n≥4, if applicable.
Hemoglobin assay: To assay blood hemoglobin, 10 μl of whole blood were obtained from the tail vein followed by lysis in 1 ml distilled water. After centrifugation (13,000 rpm, 30 min), the hemoglobin-containing supernatants were collected and measured for the optical density at the wavelength of 540 nm.
Animal inflammation models: To induce peritonitis, mice (6-8 wk, 20-22 g) were intraperitoneally injected with 0.5 mg zymosan A (Sigma) in 0.5 ml sterile PBS followed by euthanasia at 2, 4, 6 and 8 hours. […] The colitic condition was then assessed by observing diarrhea, measuring body weight loss, increases of inflammatory cytokines, the shortage of the large intestine and intestinal tissue analyses (after euthanasia). […]

[2] = test system: CFSE-labeled CD47^+ or CD47^− RBCs in recipient mice; assay: RBC adoptive transfer and in vivo clearance of CFSE-labeled RBCs; parameters: species or system mouse; conditions: SIRPα^−/− mice; 1% DSS for 8 d or directly injected with IL-17; 24 h
Text: FIGS. 2A-2E includes data related to macrophage phagocytosis in vivo assessed by adoptive transfer experiments. FIGS. 2A-C are illustrative graphs showing clearance of adoptively transferred CD47-positive (Cd47^+) or CD47-negative (Cd47^−) RBC in recipient mice. […] Error bars are ±SEM. **P<0.01, ***P<0.001 vs. WT mice clearance of Cd47^+ RBCs. […] Mice treated with DSS (1% for SIRPα^−/− mice, 2% for WT and Cd47^−/− mice) for 8 d (d8) were transfused with CFSE-RBCs followed by determination of RBC clearance after 24 h. FACS data of Cd47^+ RBCs and Cd47^− RBCs in different mice at 30 min and 24 h after transfer were selectively shown. Total RBC phagocytosis was calculated based on the rates of CFSE-RBC clearance and the fact that SIRPα^−/− mice eliminate both Cd47^− RBC and Cd47^+ RBC, whereas WT mice and Cd47^−/− mice eliminate only Cd47^− RBCs. […] Mice treated once with IL-17 (10 μg/kg, i.v.) were transfused with CFSE-labeled Cd47^+ or Cd47^− RBCs a day later. Error bars are ±SEM. **P<0.01, ***P<0.001 vs. control or the initial time point. Data presented in each panel represent at least three independent experiments with n≥4, if applicable.
Adoptive transfer and in vivo clearance: CD47-expressing (CD47^+) RBC freshly collected from WT or SIRPα^−/− mice, and CD47-null (CD47^−) RBC collected from CD47^−/− mice were labeled with carboxyfluorescein succinimidyl ester (CFSE). After washing, about 1×10^9 RBC suspended in 200 μl sterile PBS were transfused into recipient mice by intravenous (i.v.) injection. Blood samples (5 μl) were then collected 30 min after the blood transfusion and the CFSE-labeled RBC in the circulation was assessed by FACS analyses. Blood samples (5 μl each) were then collected at later time points to assess the clearance of CFSE-labeled RBC as compared to that found at 30 min. For each sample, at least 50,000 RBC were examined by FACS. […] Clearance of CFSE-labeled cells in the circulation and the spleen were analyzed by FACS analyses of blood samples and splenocytes. […]

[3] = test system: splenic macrophages, PEMs and BMDMs; assay: Ex vivo macrophage phagocytosis toward RBCs and other self-cells after activation; type: cell-based, mouse; conditions: various concentrations of IL-10
Procedure: FIGS. 3A-3H include data related to our experiments assaying macrophage phagocytosis ex vivo. FIGS. 3A and 3B show macrophage phagocytosis of RBCs. Freshly isolated splenic macrophages (MØ) and peritoneal macrophages (PEM) and in vitro-derived BMDM (bone marrow-derived macrophages) were tested for phagocytosis toward CFSE-labeled Cd47^+ or Cd47^− RBCs. […] FIGS. 3F and 3G illustrate LPS and IL-17-activated PEM phagocytosis toward splenocytes (FIG. 3F), B16, and EL4 (FIG. 3G). Error bars are ±SEM. **P<0.01, ***P<0.001 vs. no treatment controls. […] PEM lavaged without (ctl.) or with Brewer thioglycollate (3%, i.p.) elicitation was tested. Error bars are ±SEM. ***P<0.001 vs. control PEM. Data presented in each panel represent at least three independent experiments with n≥4, if applicable.
FIGS. 4A-4E include data related to our experiments on macrophage phagocytic plasticity. FIG. 4A is a panel of illustrative line graphs showing that IL-10 inhibits macrophage phagocytosis toward “self.” PEMs were treated with LPS and activating cytokines along with various concentrations of IL-10 before testing their ability to phagocytose RBCs. FIG. 4B illustrates the phagocytic plasticity of WT red pulp macrophages. […] Treatments of cultured macrophages with LPS and IL-17 re-elicited their phagocytosis toward RBCs. […] Error bars are ±SEM. ***P<0.001 vs. freshly isolated splenic macrophages. FIG. 4D includes microscopic images of RBC phagocytosis by LPS- and IL-17-treated splenic macrophages. […] WT PEMs treated with LPS or IL-17 were further treated with Cd47^+ RBCs or Cd47-AP (10 min, 37° C.) followed by cell lysis, SIRPα immunoprecipitation, and WB detection of SIRPα phosphorylation (SIRPα^pY) and SHP-1 association. Data presented in each panel represent at least three independent experiments with n≥4, if applicable.
Ex vivo macrophage phagocytosis: Mouse spleens were harvested and minced in cold HBSS followed by passing through nylon meshes. The spleen cells in suspensions were collected by centrifugation followed by washing. After lysis of RBC, splenocytes were plated in cell culture dishes in DMEM with 10% FBS and cultured for 2 h followed by removal of non-adherent cells. The adherent cells, ˜70% being macrophages as determined by anti-F4/80 staining, were tested for phagocytosis. For phagocytosis of RBC or other tissue cells, targeted cells were labeled with CFSE prior to addition into the macrophage-containing wells. Macrophages and target cells, at a ratio of 1:5-10 for RBC or 1:1-2 for other cells, were co-incubated for 30 min at 37° C. followed by gently washing. Macrophage phagocytosis of target cells was then analyzed by fluorescence microscopy and/or by FACS. To better recognize macrophages, macrophages in wells were labeled with an anti-F4/80 or an anti-CD11b antibody. Alternatively, the freshly isolated splenocytes in suspension were incubated with CFSE-labeled RBC and other phagocytic targets for 30 min at 37° C. Macrophage phagocytosis was then determined by FACS after labeling macrophages with anti-F4/80. To test phagocytosis of apoptotic cells, B16 cells were irradiated by UV for 150 seconds at 50 J/m^2 strength. Apoptosis was analyzed at 2, 4, 6, 8 and 18 h post UV irradiation by labeling of the cells with anti-phosphatidylserine (PS) antibody (data not shown) or FITC-conjugated annexin V (data not shown). Cells that were confirmed to be apoptotic were trypsinized, labeled with CFSE, and then co-incubated with macrophages for 30 min at 37° C. After gentle washing, phagocytosis was analyzed by fluorescence microscopy and/or FACS. To test phagocytosis of bacteria and the fungal product zymosan, AlexaFluor-conjugated E.coli strain […] (2 μl suspension, ˜2 μg) or zymosan bioparticles (1 μl suspension, ˜2 μg) (both from Invitrogen) were incubated with macrophages for 30 min followed by washing and analyses. Similar procedures were performed to test phagocytosis of macrophages from various sources. […]

[4] = test system: Syk; assay: Syk phosphorylation at Y519/520 in PEMs; type: cell-based, mouse
Procedure: FIGS. 5A-5H include data related to our experiments on the role of Syk in phagocytic activation. […] PEMs were treated with LPS and cytokines in the presence of various inhibitors. After washing, inhibitor-free macrophages were tested for phagocytosis toward RBCs. […] PEMs treated with LPS and activating cytokines, or together with IL-10, were tested for total Syk and phosphorylated Syk (Syk^pY, specific at Y519/520). FIG. 5D describes PMA-induced macrophages phagocytosis toward RBCs. WT and SIRPα^−/− PEMs were treated with PMA (37° C., 30 min) before testing phagocytosis toward RBCs. FIG. 5E is a schematic depiction of PKC-Syk-mediated macrophage phagocytic activation toward self. […] Left: Inhibition of Syk by piceatannol and R406 prevented PMA-induced phagocytic activation. […] Error bars are ±SEM. ***P<0.001 vs. the respective controls. […] LPS-treated WT PEMs were further briefly treated with pervanadate before testing for phagocytosis toward RBCs. Error bars are ±SEM. ***P<0.001 vs. the respective controls. […] Data presented in each panel represent at least three independent experiments with n≥4, if applicable.
Multiple pharmacological inhibitors were tested for their effects on LPS and cytokine-induced activation of macrophage phagocytosis toward self. […] For example, inhibition of JAKs blocked IL-6 and IL-17, but not LPS and TNFα, for activation of PEM phagocytosis. […]

| Molecule | peripheral hemoglobin reduction [1] | clearance of transferred CD47^+ and CD47^− RBCs [2] | LPS-, IL-17-, IL-6-, TNFα-, and IL-1β-induced activation of PEM phagocytosis toward RBCs [3] | Syk phosphorylation (Syk^PY, Y519/520) [4] |
| --- | --- | --- | --- | --- |
| dextran sodium sulfate [DSS] | 40-50 | ~50% | – | – |
| B1 | – | – | dose-dependently inhibited | counter-repressed Syk phosphorylation |
